Measurements from US10532065B2, “Bisphosphonic acid derivative and application for same” (NAGASAKI UNIVERSITY, priority 2014, dated 2020).
Like-named read-outs stand apart in the source and are kept apart here. Each block holds one molecule with its values, some of them ahead of it.

What was measured:
Format in all cases: cell-based
PK-1 cells = test: PK-1 tumor cell growth inhibition (CellTiterGlo); conditions: PK-1, Pancreatic cancer, 4 days culture
Method: (§2) First, EJ-1, 786-0, MKN1, OST, PC-3, PK-1, LK-2, G-361, TFK-1, MRK-nu-1 were cultured in RPMI1640 medium supplemented with 10% calf serum at 37° C. under 5% CO2 atmosphere while maintaining log phase. The cells were recovered by a conventional EDTA trypsin treatment, and centrifuged at 1,700 rpm, 4° C. for 5 min. The supernatant was removed, and suspended in RPMI1640 medium supplemented with 10% calf serum to 500 cells/50 μl. On the other hand, 10 mM stock solution of compound 7 which is a bisphosphonic acid POM ester derivative was serially diluted 2-fold from 200 pM. In addition, 10 mM stock solution of compound 14 which is bisphosphonic acid was serially diluted 2-fold from 2 mM. Then, the cell suspension (50 μl, 500 cells) and the compound solution (50 μl) were added to a flat-bottomed 96 well plate and cultured at 37° C. under 5% CO2 atmosphere for 4 days. Then, 100 μl of CellTiterGlo solution was added, and the mixture was pipetted 10 strokes, and transferred to a 96 well OptiPlate. After standing at room temperature for 10 min, the luminescence was measured by a luminometer and IC50 value was calculated.

LK-2 cells = test: LK-2 tumor cell growth inhibition (CellTiterGlo); conditions: LK-2, Lung cancer, 4 days culture
Method: as §2

TFK-1 cells = test: TFK-1 tumor cell growth inhibition (CellTiterGlo); conditions: TFK-1, Cholangiocarcinoma, 4 days culture
Method: as §2

MOLT-4 cells = test: MOLT-4 tumor cell growth inhibition (CellTiterGlo); conditions: MOLT-4, Acute lymphoblastic leukemia, 4 days culture
Method: (§3) To quantitatively study an action of compound 7, which is a bisphosphonic acid POM ester derivative, on various hematologic tumor-derived lymphoma and myeloidic leukemia cells, the concentration of a compound that inhibits cell proliferation to half was calculated as IC50, and a direct antitumor effect was studied from the value thereof. […] First, MOLT-4, THP-1, SCC-3, PEER, RAMOS-RA1, C1R, MOLT-3, Raji, U937, K562, Daudi were cultured in RPMI1640 medium supplemented with 10% calf serum at 37° C. under 5% CO2 atmosphere while maintaining log phase. The cells were recovered, and centrifuged at 1,700 rpm, 4° C. for 5 min. The supernatant was removed, and suspended in RPMI1640 medium supplemented with 10% calf serum to 500 cells/50 μl. On the other hand, 10 mM stock solution of compound 7 which is a bisphosphonic acid POM ester derivative was serially diluted 2-fold from 200 μM. In addition, 10 mM stock solution of compound 14 which is bisphosphonic acid was serially diluted 2-fold from 2 mM. Then, the cell suspension (50 μl, 500 cells) and the compound solution (50 μl) were added to a flat-bottomed 96 well plate and cultured at 37° C. under 5% CO2 atmosphere for 4 days. Then, 100 μl of CellTiterGlo solution was added, and the mixture was pipetted 10 strokes, and transferred to a 96 well OptiPlate. […]

PEER cells = test: PEER tumor cell growth inhibition (CellTiterGlo); conditions: T cell acute lymphocytic leukemia, 4 days culture
Method: as §3

C1R cells = test: C1R tumor cell growth inhibition (CellTiterGlo); conditions: B cell lymphoma, 4 days culture
Method: as §3

MOLT-3 cells = test: MOLT-3 tumor cell growth inhibition (CellTiterGlo); conditions: MOLT-3, Acute lymphoblastic leukemia, 4 days culture
Method: as §3

Raji cells = test: Raji tumor cell growth inhibition (CellTiterGlo); conditions: Burkitt's lymphoma, 4 days culture
Method: as §3

K562 cells = test: K562 tumor cell growth inhibition (CellTiterGlo); conditions: K562, Erythromcytoma, 4 days culture
Method: as §3

G-361 cells / γδ T cells = test: TNF-α production from γδ T cells stimulated by compound-pretreated G-361 cells; conditions: G-361, Melanoma, 4 hr pretreatment, 16 hr with γδ T cells, read-out: TNF-α50
Method: (§1) Since the above-mentioned results of Experimental Example confirm that the activity of bisphosphonic acids becomes high by POM esterification in various tumor cells, the TNF-α production induction ability of more number of tumor cells was quantitatively studied. […] Thereto was added a solution (500 μl) of compound 7 obtained by serially diluting 10 mM stock solution 10-fold from 20 μM, or a solution (500 μl) of compound 14 obtained by serially diluting 10 mM stock solution 10-fold from 200 μM, and the cells were suspended well. These conical tubes were stood at 37° C. for 4 hr, and the cells were washed 3 times with 5 ml of culture medium. To these cells was added 500 μl of medium, and the cells were suspended well. […] The cell culture medium was suspended well, and the plate was centrifuged at 1,700 rpm, 4° C. for 2 min and the culture supernatant (150 μl) was taken and placed in another round-bottomed 96 well plate. The plate was frozen at −80° C. overnight, left standing at room temperature for 1 hr, stirred well and 100 μl thereof was subjected to ELISA of TNF-α. The content of TNF-α was calculated from the analytical curve of TNF-α. These were performed in triplicate, and TNF-α50 of bisphosphonic acid POM ester derivative (compound 7) and bisphosphonic acid (compound 14) was calculated and summarized in Table 8.

C1R cells / γδ T cells = test: TNF-α production from γδ T cells stimulated by compound-pretreated C1R cells; conditions: B cell lymphoma, 4 hr pretreatment, 16 hr with γδ T cells, read-out: TNF-α50
Method: as §1

[1] = test system: MOLT-3 cells / γδ T cells; test: TNF-α production from γδ T cells stimulated by compound-pretreated MOLT-3 cells; conditions: MOLT-3, Acute lymphoblastic leukemia, 4 hr pretreatment, 16 hr with γδ T cells, read-out: TNF-α50
Method: as §1

- IC50 (PK-1 cells; 96 h): 110000 nM
- IC50 (LK-2 cells; Homo sapiens, 96 h): 35000 nM
- IC50 (TFK-1 cells; 96 h): 30000 nM
- IC50 (MOLT-4 cells; Homo sapiens, 96 h): 120000 nM
- IC50 (PEER cells; 96 h): 82000 nM
- IC50 (C1R cells; 96 h): 79000 nM
- IC50 (MOLT-3 cells; Homo sapiens, 96 h): 180000 nM
- IC50 (Raji cells; Homo sapiens, 96 h): 120000 nM
- IC50 (K562 cells; Homo sapiens, 96 h): 16000 nM
- EC50 (G-361 cells / γδ T cells; Homo sapiens): 5100 nM
- EC50 (C1R cells / γδ T cells): > 100000 nM
- EC50 ([1]; Homo sapiens): > 100000 nM
SMILES: O=P(O)(O)C(CNc1nccs1)P(=O)(O)O [Compound 14, 2-(thiazol-2-ylamino)ethylidene-1,1-bisphosphonic Acid, reference compound]

SMILES: CC(C)(C)C(=O)OCOP(=O)(OCOC(=O)C(C)(C)C)C(CNc1nccs1)P(=O)(OCOC(=O)C(C)(C)C)OCOC(=O)C(C)(C)C [Compound 7, tetrakispivaloyloxymethyl 2-(thiazol-2-ylamino) ethylidene-1,1-bisphosphonate]
- IC50 (PK-1 cells): 340 nM
- IC50 (LK-2 cells): 800 nM
- IC50 (TFK-1 cells): 100 nM
- IC50 (MOLT-4 cells): 160 nM
- IC50 (PEER cells): 23 nM
- IC50 (C1R cells): 78 nM
- IC50 (MOLT-3 cells): 130 nM
- IC50 (Raji cells): 270 nM
- IC50 (K562 cells): 29 nM
- EC50 (G-361 cells / γδ T cells): 63 nM
- EC50 (C1R cells / γδ T cells): 530 nM
- EC50 [1]: 66 nM
